Reference: PubChem BioAssay AID248 (DTP/NCI, 2004)
“And” between values parts separate entries of the source, which are not always exact repeats. Equal values may be shown once. Inconclusive results and toxic doses are left out. Cut-off read from the data, not from the text of the source: active = T/C of 150% or more; inactive = T/C below 125%.

Test system: L1210 leukemia ip in BDF1 mice, survival T/C
Assay: NCI In Vivo Anticancer Drug Screen. Data for tumor model L1210 Leukemia (intraperitoneal) in B6D2F1 (BDF1) mice
Settings: endpoint: mean survival time, higher = longer survival
In short: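 Read-out is survival time, reported as the treated-group measurement over the vehicle-control measurement.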

[1] = dose: 100.0 mg/kg/injection, schedule: Q04DX003 (ip), vehicle: saline
[2] = dose: 100.0 mg/kg/injection, schedule: Q01DX001 (ip), vehicle: saline
[3] = dose: 100.0 mg/kg/injection, schedule: Q04DX002 (ip), vehicle: Klucel (hydroxypropylcellulose) (HPC)
[4] = dose: 200.0 mg/kg/injection, schedule: Q01DX001 (ip), vehicle: saline
[5] = dose: 200.0 mg/kg/injection, schedule: Q04DX002 (ip), vehicle: Klucel (hydroxypropylcellulose) (HPC)
[6] = dose: 400.0 mg/kg/injection, schedule: Q01DX001 (ip), vehicle: saline
[7] = dose: 15.0 mg/kg/injection, schedule: Q01DX009 (ip), vehicle: saline with Tween-80
[8] = dose: 100.0 mg/kg/injection, schedule: Q01DX009 (ip), vehicle: Klucel (hydroxypropylcellulose) (HPC)
[9] = dose: 200.0 mg/kg/injection, schedule: Q01DX009 (ip), vehicle: Klucel (hydroxypropylcellulose) (HPC)
[10] = dose: 100.0 mg/kg/injection, schedule: Q01DX009 (ip), vehicle: saline with Tween-80
[11] = dose: 200.0 mg/kg/injection, schedule: Q01DX009 (ip), vehicle: saline with Tween-80

Measured: T/C

Cc1ccc(S(=O)(=O)N=S(C)C)cc1
inactive: dose: 50.0 mg/kg/injection, schedule: Q01DX001 (ip), vehicle: carboxymethylcellulose (CMC) 104 % of control | dose: 100.0 mg/kg/injection, schedule: Q01DX001 (ip), vehicle: carboxymethylcellulose (CMC) 104 % of control | dose: 200.0 mg/kg/injection, schedule: Q01DX001 (ip), vehicle: carboxymethylcellulose (CMC) 98 % of control | dose: 400.0 mg/kg/injection, schedule: Q01DX001 (ip), vehicle: carboxymethylcellulose (CMC) 93 % of control | dose: 800.0 mg/kg/injection, schedule: Q01DX001 (ip), vehicle: carboxymethylcellulose (CMC) 105 % of control | dose: 1200.0 mg/kg/injection, schedule: Q01DX001 (ip), vehicle: carboxymethylcellulose (CMC) 103 % of control | dose: 1600.0 mg/kg/injection, schedule: Q01DX001 (ip), vehicle: carboxymethylcellulose (CMC) 109 % of control

CNN
inactive: dose: 20.0 mg/kg/injection, schedule: Q04DX003 (ip), vehicle: saline 101 % of control | dose: 25.0 mg/kg/injection, schedule: Q01DX009 (ip), vehicle: saline 103 % of control | dose: 40.0 mg/kg/injection, schedule: Q04DX003 (ip), vehicle: saline 121 % of control | dose: 80.0 mg/kg/injection, schedule: Q04DX003 (ip), vehicle: saline 111 % of control | [1] 96 % of control

C/C(C/C(C)=N/O)=N/O.C/C(C/C(C)=N/O)=N\O.[Cl][Rh][Cl]
inactive: dose: 25.0 mg/kg/injection, schedule: Q01DX009 (ip), vehicle: water 100 % of control | dose: 50.0 mg/kg/injection, schedule: Q01DX009 (ip), vehicle: water 97 % of control | dose: 100.0 mg/kg/injection, schedule: Q01DX009 (ip), vehicle: water 97 % of control | dose: 200.0 mg/kg/injection, schedule: Q01DX009 (ip), vehicle: water 100 % of control | dose: 400.0 mg/kg/injection, schedule: Q01DX009 (ip), vehicle: water 94 % of control

CCOC(=O)C(=Cc1ccccc1)C(=O)OCC
inactive: [2] 96 % of control | [3] 98 % of control | [4] 100 % of control | [5] 95 % of control | [6] 100 % of control | dose: 400.0 mg/kg/injection, schedule: Q04DX002 (ip), vehicle: Klucel (hydroxypropylcellulose) (HPC) 102 % of control

NCCOB(c1ccccc1)c1ccccc1
inactive: dose: 3.8 mg/kg/injection, schedule: Q01DX009 (ip), vehicle: saline with Tween-80 94 % of control | dose: 7.5 mg/kg/injection, schedule: Q01DX009 (ip), vehicle: saline with Tween-80 105 % of control | [7] 91 % of control

N#CC(C#N)=CNc1ccc(S(N)(=O)=O)cc1
inactive: dose: 75.0 mg/kg/injection, schedule: Q01DX001 (ip), vehicle: saline 101 % of control | dose: 150.0 mg/kg/injection, schedule: Q01DX001 (ip), vehicle: saline 95 % of control | dose: 300.0 mg/kg/injection, schedule: Q01DX001 (ip), vehicle: saline 96 % of control

CN(C)c1ccccc1C(=O)N/N=C\c1ccc(Cl)cc1
inactive: dose: 100.0 mg/kg/injection, schedule: Q04DX002 (ip), vehicle: gum acacia 96 % of control | dose: 200.0 mg/kg/injection, schedule: Q04DX002 (ip), vehicle: gum acacia 107 % of control | dose: 400.0 mg/kg/injection, schedule: Q04DX002 (ip), vehicle: gum acacia 100 % of control

O=C(O)/C(=C\c1ccccc1)c1cccc2ccccc12
inactive: [8] 100 % of control | [9] 98 % of control

CC(=O)N1Cc2c(N)ncnc2C1C (stereo not drawn)
inactive: [2] 100 % of control | [4] 108 % of control | [6] 114 % of control

O=C1NNC(=O)C2C3CCC(C3)C12 (stereo not drawn)
inactive: dose: 50.0 mg/kg/injection, schedule: Q01DX009 (ip), vehicle: saline 98 % of control

O=[N+]([O-])c1ccc(/C=C/C=C/c2ccccc2)cc1
inactive: [10] 105 % of control | [11] 92 % of control | dose: 400.0 mg/kg/injection, schedule: Q01DX009 (ip), vehicle: saline with Tween-80 89 % of control

CC(=O)OCC1(C[N+](C)(C)C)CCC1
inactive: [2] 103 % of control | [1] 95 % of control | [4] 97 % of control | dose: 200.0 mg/kg/injection, schedule: Q04DX003 (ip), vehicle: saline 94 % of control | [6] 110 % of control

CCc1nc(N)nc(N)c1-c1ccc([N+](=O)[O-])cc1O
inactive: dose: 100.0 mg/kg/injection, schedule: Q04DX003 (ip), vehicle: Klucel (hydroxypropylcellulose) (HPC) 92 % of control | dose: 200.0 mg/kg/injection, schedule: Q04DX003 (ip), vehicle: Klucel (hydroxypropylcellulose) (HPC) 93 % of control | dose: 400.0 mg/kg/injection, schedule: Q04DX003 (ip), vehicle: Klucel (hydroxypropylcellulose) (HPC) 89 % of control

CCCCC(=O)NCC(=O)N1CCC(C(=O)NCCCCC(=O)OC)C1 (stereo not drawn)
inactive: dose: 100.0 mg/kg/injection, schedule: Q04DX002 (ip), vehicle: saline 96 % of control | dose: 200.0 mg/kg/injection, schedule: Q04DX002 (ip), vehicle: saline 115 % of control | dose: 400.0 mg/kg/injection, schedule: Q04DX002 (ip), vehicle: saline 104 % of control

Cc1nc2c(o1)CCCC2
inactive: dose: 25.0 mg/kg/injection, schedule: Q01DX009 (ip), vehicle: carboxymethylcellulose (CMC) 94 % of control and 107 % of control | dose: 50.0 mg/kg/injection, schedule: Q01DX009 (ip), vehicle: carboxymethylcellulose (CMC) 97 % of control and 103 % of control | dose: 100.0 mg/kg/injection, schedule: Q01DX009 (ip), vehicle: carboxymethylcellulose (CMC) 94 % of control and 105 % of control | dose: 100.0 mg/kg/injection, schedule: Q04DX002 (ip), vehicle: carboxymethylcellulose (CMC) 103 % of control and 113 % of control | dose: 200.0 mg/kg/injection, schedule: Q04DX002 (ip), vehicle: carboxymethylcellulose (CMC) 98 % of control and 100 % of control | dose: 400.0 mg/kg/injection, schedule: Q04DX002 (ip), vehicle: carboxymethylcellulose (CMC) 88 % of control

COC1C=CC=CC=C1
inactive: [7] 108 % of control | dose: 30.0 mg/kg/injection, schedule: Q01DX009 (ip), vehicle: saline with Tween-80 113 % of control | dose: 60.0 mg/kg/injection, schedule: Q01DX009 (ip), vehicle: saline with Tween-80 103 % of control

COC(C(OC(C)=O)C(OC(C)=O)C(OC(C)=O)C(COC(C)=O)OC(C)=O)n1cc(C)c(=O)[nH]c1=O (stereo not drawn)
inactive: dose: 50.0 mg/kg/injection, schedule: Q01DX001 (ip), vehicle: saline 103 % of control | [2] 97 % of control | [4] 95 % of control | [6] 91 % of control

CCOP(OCC)Oc1ccccc1
inactive: dose: 100.0 mg/kg/injection, schedule: Q04DX003 (ip), vehicle: saline with Tween-80 92 % of control | dose: 200.0 mg/kg/injection, schedule: Q04DX003 (ip), vehicle: saline with Tween-80 109 % of control | dose: 400.0 mg/kg/injection, schedule: Q04DX003 (ip), vehicle: saline with Tween-80 100 % of control

CC1(C)C(=NNc2ccc([N+](=O)[O-])cc2[N+](=O)[O-])C(C)(C)C1(Cl)Cl
inactive: dose: 50.0 mg/kg/injection, schedule: Q04DX002 (ip), vehicle: Klucel (hydroxypropylcellulose) (HPC) 97 % of control | [3] 118 % of control | [5] 105 % of control

C=C1Sc2ccccc2N1C
inactive: dose: 6.25 mg/kg/injection, schedule: Q01DX015 (ip), vehicle: saline 97 % of control | dose: 12.5 mg/kg/injection, schedule: Q01DX015 (ip), vehicle: saline 97 % of control | dose: 25.0 mg/kg/injection, schedule: Q01DX015 (ip), vehicle: saline 95 % of control | dose: 50.0 mg/kg/injection, schedule: Q01DX015 (ip), vehicle: saline 91 % of control

O=C(/C(=C\c1ccccc1)c1ccccc1)c1ccc(O)cc1
inactive: [2] 98 % of control | [4] 101 % of control | [6] 101 % of control

Cc1[nH]c(N)nc(=S)c1CCCOc1ccc([N+](=O)[O-])cc1
inactive: dose: 50.0 mg/kg/injection, schedule: Q01DX009 (ip), vehicle: Klucel (hydroxypropylcellulose) (HPC) 112 % of control | [8] 96 % of control | [9] 102 % of control

CC/C(C)=N/Nc1ccc([N+](=O)[O-])cc1[N+](=O)[O-]
inactive: dose: 100.0 mg/kg/injection, schedule: Q01DX001 (ip), vehicle: other 94 % of control | dose: 200.0 mg/kg/injection, schedule: Q01DX001 (ip), vehicle: other 94 % of control | dose: 400.0 mg/kg/injection, schedule: Q01DX001 (ip), vehicle: other 97 % of control

CCOC(=O)CSc1nc2nc(Cl)c(Cl)nc2[nH]1
inactive: dose: 25.0 mg/kg/injection, schedule: Q01DX009 (ip), vehicle: saline with Tween-80 104 % of control | dose: 50.0 mg/kg/injection, schedule: Q01DX009 (ip), vehicle: saline with Tween-80 98 % of control | [10] 105 % of control | [11] 96 % of control
